This note sets out measurements from article PMC7463913, “The Interaction of Fluorinated Glycomimetics with DC-SIGN: Multiple Binding Modes Disentangled by the Combination of NMR Methods and MD Simulations” (Pharmaceuticals, 2020).

This test concerns the target T1, DC-SIGN (ECD tetramer) (Homo sapiens, UniProt Q9NNX6).
T1 construct: DC-SIGN full extracellular domain (ECD, residues 70-404, Thermo Fischer Scientific); made in house
T1 sequence (Q9NNX6 70-404): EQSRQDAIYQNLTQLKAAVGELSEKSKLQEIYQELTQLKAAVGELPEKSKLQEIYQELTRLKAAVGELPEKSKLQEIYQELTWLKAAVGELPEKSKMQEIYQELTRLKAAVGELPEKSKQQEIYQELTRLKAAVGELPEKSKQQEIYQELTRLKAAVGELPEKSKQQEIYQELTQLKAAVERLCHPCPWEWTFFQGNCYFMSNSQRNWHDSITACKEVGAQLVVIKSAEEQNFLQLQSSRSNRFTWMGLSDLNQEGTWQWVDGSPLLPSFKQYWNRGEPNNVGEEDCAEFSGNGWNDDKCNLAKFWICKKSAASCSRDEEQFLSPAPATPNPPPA
Kind of test: 2D-STD-TOCSYreF NMR experiments (binding epitope). The following applies: for total relative STD per Man ring: normalized to the global observed STD; for % STD (normalized): normalized to largest STD in each molecule. The text has this:
The interaction between DC-SIGN and the three Man-based 2-deoxy-fluoro oligosaccharides (Figure 1) was first analyzed using 2D-STD-TOCSYreF experiments (Figure 2). A long TOCSY mixing time (128 ms) was used to extend the polarization to all protons within the same spin system for each Man ring. The enhanced resolution of the 2D-TOCSYreF allowed the assignment of most of the STD NMR cross peaks with high reliability for the three fluorinated compounds (Figure 2 and Table 1). Generally speaking, the inherent loss of sensitivity due to the heteronuclear reF transfer in the 2D-STD-TOCSYreF experiments is overcompensated by the gained spectral dispersion.
Figure 2 2D-TOCSYreF off-resonance spectrum (red) and 2D-STD-TOCSYreF peaks (blue) obtained for 1 (top panel), 2 (central panel) and 3 (bottom panel) in the presence of DC-SIGN. The ^19F NMR frequencies are given in the abscissa axis and the ^1H NMR frequencies in the ordinate axis. The STD cross peaks are shifted to high field in the ^19F frequency to facilitate visual inspection. Every blue cross peak corresponds to the STD NMR intensity of the particular ^1H NMR nucleus in a given monosaccharide, which is encoded by the ^19F frequency. The ligand concentration was 1.4 mM in each case, with 9.14 μM of DC-SIGN tetramer, thus containing four carbohydrate recognition domains (CRD) (ligand/protein-CRD ratio is 38:1). The on-resonance irradiation was set to 0.85 ppm, with a saturation time of 2 s. The relative STD values, shown by colored circles, are obtained from the ratio between the corresponding peaks in the 2D STD-TOCSY-reF and 2D-TOCSYreF off-resonance spectra, and normalized to the largest STD in each molecule. The circles connected by a colored thin line correspond to overlapped signals in the spectrum, so that the STD intensity is shown as ‘spread’ between the corresponding ^1H nuclei (meaning each of these protons may contribute or not to the total STD observed). In this case, the added STD intensity is given. The total relative STD per Man ring for each molecule is also specified with a colored tag, using the same color code as the circles. TEXT PRINTED IN THE PICTURE: 1: % STD (Man II): 44 %; % STD (Man III): 9 %; % STD (Man I): 47 % | 2: % STD (Man III): 11 %; % STD (Man I): 89 % | 3: % STD (Man II): 70 %; % STD (Man III): 30 % DOUBTS OF THE COPYIST ABOUT THIS PICTURE: The percent tags are matched to the Man I/II/III rings by position and colour only. The measure '% STD' is printed only at the colour bar. / The percent tags are relative STD-NMR values per sugar ring (binding epitope), so it is uncertain whether they count as a result or belong to the excluded spectra.
Samples for the 2D STD-TOCSY-reF contained 9.14 µM ECD (tetramer) and 153 eq. of ligand (1.4 mM, the ratio ligand/protein (CRD) is 38:1) in each case. The 2D STD-TOCSY-reF setup consists on a proton saturation transfer scheme (^1Hprotein→^1Hligand-STD) with subsequent evolution through JHH couplings (TOCSY), to finally refocus the STD-edited information in the ^19F dimension (reF). As STD parameters, selective saturation was applied for 2 s using 90º PC9 pulses of 10 ms length, with on-resonance saturation set at 0.85 ppm and off-resonance at 60 ppm. The TOCSY mixing time used was 128 ms, and the corresponding JHF evolution and refocusing delays in the reF module were Δ^H = 10.4 ms and Δ^F = 6 ms, respectively. The relative saturation values (%) were calculated from the ratio between peaks in the 2D STD-TOCSY-reF spectrum and the corresponding ones in the off-resonance TOCSY-reF spectrum.

Where [1] appears, read: proton ManI-1, ligand 1.4 mM, 9.14 µM tetramer, 2 s saturation at 0.85 ppm.

On to `CO[C@H]1O[C@H](CO)[C@@H](O)[C@H](O[C@H]2O[C@H](CO)[C@@H](O)[C@H](O)[C@@H]2F)[C@@H]1F` [compound 2], for which the “total relative STD per Man ring” value runs as follows: (Man I ring) 89%; (Man III ring) 11%. For the same compound, the “% STD (normalized)” value is, setting by setting: under setting [1], 15%; (proton ManI-2) 33%; (proton ManI-3) 74%; (proton ManI-4) 100%; (proton ManI-5) 22%; (proton ManIII-1) 17%. Also, for the setting “proton ManIII-2”, the “% STD (normalized)” value was found to be 14%.

Consider `CO[C@H]1O[C@H](CO[C@H]2O[C@H](CO)[C@@H](O)[C@H](O)[C@@H]2F)[C@@H](O)[C@H](O)[C@@H]1F` [compound 3], for which the “total relative STD per Man ring” value worked out at 70% (Man II ring) and 30% (Man III ring). Besides, the “% STD (normalized)” value (overlapped protons ManII-3/6) was 86%; the “% STD (normalized)” value (overlapped protons ManII-4/5) was found to be 100%; the “% STD (normalized)” value (overlapped protons ManIII-3/4/5/6) stood at 47%; the “% STD (normalized)” value (proton ManII-1) turned out to be 31%; the “% STD (normalized)” value (proton ManII-2) came out at 45%; the “% STD (normalized)” value (proton ManIII-1) is on record as 33%. Further, for the setting “proton ManIII-2”, the “% STD (normalized)” value stood at 31%.

As for `CO[C@H]1O[C@H](CO[C@H]2O[C@H](CO)[C@@H](O)[C@H](O)[C@@H]2F)[C@@H](O)[C@H](O[C@H]2O[C@H](CO)[C@@H](O)[C@H](O)[C@@H]2F)[C@@H]1F` [compound 1], the “total relative STD per Man ring” value runs as follows: (Man I ring) 47%; (Man II ring) 44%; (Man III ring) 9%. In addition, the “% STD (normalized)” value is, setting by setting: (overlapped protons ManII-3/6) 47%; (overlapped protons ManII-4/5) 52%; (overlapped protons ManIII-1/2) 31%; under setting [1], 16%; (proton ManI-2) 42%; (proton ManI-3) 100%. Also, the “% STD (normalized)” value by setting is: (proton ManII-1) 19%; (proton ManII-2) 31%.
